The target of one test is T1, 5α reductase type 1 (Homo sapiens, UniProt P18405).
T1 construct: host or cells: CHO 1827
T1 sequence (P18405 1-259): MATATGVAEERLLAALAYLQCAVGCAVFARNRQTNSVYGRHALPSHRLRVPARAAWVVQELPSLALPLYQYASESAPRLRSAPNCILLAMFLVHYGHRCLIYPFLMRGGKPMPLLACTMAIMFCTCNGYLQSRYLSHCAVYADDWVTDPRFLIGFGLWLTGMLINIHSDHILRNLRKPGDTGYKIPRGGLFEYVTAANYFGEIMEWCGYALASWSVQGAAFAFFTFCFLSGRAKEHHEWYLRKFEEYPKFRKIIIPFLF
The test is described as follows: 5α reductase inhibition test in CHO 1827 cells. To be noted: 10^−9 to 10^−5 M. It is filed as cell-based. As to the method: CHO-1827 and CHO-1829 cells, transfected with 5α reductase type 1 (5αR-1) or type 2 (5αR-2), respectively (see Steers W. Urology (2001) 58 p 17-24), were maintained in Ham's F12 medium supplemented with 5% FCS.
5α reductase inhibition assay was performed using CHO 1827 cells, transfected with 5αR-1, or CHO 1829 cells, transfected with 5αR-2, as described (see Guarna A, et al. Journal of Medicinal Chemistry (2000) 43 3718-3735.). Compound A was added in a concentration range from 10^−9 to 10^−5 M, using finasteride as a control inhibitor in each experiment.

In a further test the test system is bladder. The test is described as follows: Bladder outlet obstruction (BOO) rat model, cystometry and bladder weight. It is filed as in vivo. To be noted: BOO rats, 150 μg/Kg daily, 2 weeks. As to the method:
• Female Sprague-Dawley rats, weighing 200-250 g 1.2. Grouping • Group A: BOO rats, treated with Compound A over 2 weeks, beginning at day 1 after creation of the obstruction (n=12) • Group B: BOO rats, treated with vehicle over 2 weeks, beginning at day 1 after creation of the obstruction (n=12) • Group C: Sham operated rats, treated with Compound A over 2 weeks, beginning at day 1 after surgery (n=12) 1.3. Studies: • a) Cystometry (˜18 hours after last administration of the drug/vehicle, 12 hours after removal of the obstructing ligature) under conscious conditions. • b) Measurements of bladder weight • c) In vitro investigations 2. Methods 2.1. Bladder Outlet Obstruction (BOO):
The bladder and urethrovesical junction were exposed through a lower abdominal midline incision. A 0.9 mm metal rod was placed alongside the proximal urethra and a 3-0 silk ligature was tied tightly around the urethra and the rod, which was consequently be removed. Sham surgery was be performed accordingly, without placing the ligature. After 13 days the ligature was be removed and a catheter was be inserted into the bladder dome and tunneled subcutaneously.
The following morning after insertion of the catheter, the cystometric investigation was performed without any anesthesia or restraint in a metabolic cage. The amount of voided urine was measured by means of a fluid collector, connected to a force displacement transducer. The bladder was continuously filled with saline at room temperature. The catheter was also connected to a pressure transducer. After a stabilization period of 30-60 minutes, when reproducible voiding patterns are achieved, the following parameters were recorded over a period of 30 minutes: Basal bladder pressure, micturition pressure, threshold pressure, micturition interval and volume, and non-voiding contractions. The amount of residual urine was investigated manually 3 times, at the end of the cystometry. Bladder capacity was calculated based on the measured values.
The validated bladder outlet obstruction rat model described above was used to test the ability of Compound A to control and treat bladder dysfunction. The objective was to evaluate whether a vitamin D3 analogue (1-alpha-fluoro-25-hydroxy-16,23e-diene-26,27-bishomo-20-epi-cholecalciferol—compound “A”) at the dose of 150 μg/Kg/daily) can prevent bladder hypertrophy and bladder dysfunction such as bladder overactivity.
In this model a ligature was surgically placed around the outlet of the catheterized bladder, so that when the catheter was removed, the bladder experienced increased urethral resistance. The rats underwent continuous cystometry to evaluate bladder function. In addition the contractile properties of isolated bladder preparation in response to nerve stimulation and exogenous stimuli in vitro were investigated under electrical field stimulation (EFS).
The following cystometric parameters were investigated (see FIGS. 12-16): • micturition pressure (the maximum bladder pressure during micturition), • bladder capacity (residual volume after voiding plus the volume of saline infused to induce the void) • micturition volume (volume of the expelled urine) • residual urine (bladder capacity minus micturition volume) and • frequency and amplitude of spontaneously occurring changes intravesical pressure (non-voiding contractions).

The next test has as its target T2, AR (Homo sapiens, UniProt P10275).
T2 sequence (P10275 1-920): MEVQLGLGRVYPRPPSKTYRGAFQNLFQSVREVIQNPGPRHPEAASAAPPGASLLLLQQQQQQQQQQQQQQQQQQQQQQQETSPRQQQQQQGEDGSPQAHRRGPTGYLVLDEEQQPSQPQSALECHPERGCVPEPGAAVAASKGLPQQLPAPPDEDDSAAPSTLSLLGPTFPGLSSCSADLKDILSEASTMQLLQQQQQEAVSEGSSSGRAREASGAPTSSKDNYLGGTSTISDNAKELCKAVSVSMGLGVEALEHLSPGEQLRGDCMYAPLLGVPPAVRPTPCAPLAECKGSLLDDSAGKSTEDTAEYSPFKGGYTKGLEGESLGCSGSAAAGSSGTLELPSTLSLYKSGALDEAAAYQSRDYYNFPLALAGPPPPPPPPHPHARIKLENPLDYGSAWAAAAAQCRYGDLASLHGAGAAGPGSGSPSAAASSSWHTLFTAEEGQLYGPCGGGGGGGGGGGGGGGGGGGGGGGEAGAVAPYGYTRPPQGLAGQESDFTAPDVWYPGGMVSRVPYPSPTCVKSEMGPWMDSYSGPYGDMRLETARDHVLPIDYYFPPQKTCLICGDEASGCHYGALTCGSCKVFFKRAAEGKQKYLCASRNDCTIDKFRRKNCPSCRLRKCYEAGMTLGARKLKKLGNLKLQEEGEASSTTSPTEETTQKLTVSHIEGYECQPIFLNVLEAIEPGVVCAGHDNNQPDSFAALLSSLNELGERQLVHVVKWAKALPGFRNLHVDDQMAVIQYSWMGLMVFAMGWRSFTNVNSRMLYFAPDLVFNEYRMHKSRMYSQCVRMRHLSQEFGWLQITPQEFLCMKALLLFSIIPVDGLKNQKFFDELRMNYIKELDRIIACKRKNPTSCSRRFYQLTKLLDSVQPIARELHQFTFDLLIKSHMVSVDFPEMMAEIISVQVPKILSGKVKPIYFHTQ
The test is described as follows: Luciferase assay in AR-transfected PC3 cells. Also on record: In PC3 cells expressing the full length AR coupled to a luciferase report gene; expressed in transfected cells; host or cells: PC3 (AR-deficient human prostate adenocarcinoma), stably transfected with p5HbhAR-A. The format is cell-based. To be noted: increasing concentrations, alone or with DHT 3 nM.

Method for AR: PC3 cells stably transfected with human AR were plated in 24-well plates at a density of 2×10^4 in Ham's F12 plus 10% FCS. […] Transfected cells incubated with ethanol only served as positive controls.
The Luciferase assay was performed with a Berthold luminometer according to the manufacturer's instructions (Luciferase Assay System, Promega, Milan, Italy). The cells were lysed directly in the plate with 200 μl of lysis buffer. Luciferase activity was measured on 20 μl of cell lysate for 10 s after addition of 100 μl of luciferine. Total protein measurement was performed on 20 μl of cell lysate. At least three independent assays were done in duplicate.

As to `C=C1/C(=C\C=C2/CCC[C@]3(C)C([C@@H](C)C/C=C/C(O)(CC)CC)=CC[C@@H]23)C[C@@H](O)C[C@@H]1F` [Compound A, 1-alpha-fluoro-25-hydroxy-16,23E-diene-26,27-bishomo-20-epi-cholecalciferol], the “interference with 5α reductase type 1” value on 5α reductase type 1 was “did not interfere with either isoenzyme up to the micromolar range”. In the test with bladder, the bladder weight result was “slight decrease”, the micturition pressure entry is “significant differences versus vehicle”, the residual urine result is reported as “absent” and the “spontaneous non-voiding contraction amplitude” value is “significant differences versus vehicle”. In the test with bladder, the “spontaneous non-voiding contraction frequency” value is recorded as “significant differences versus vehicle”. Besides, on AR, the “effect on AR-mediated luciferase activity (agonist/antagonist)” value is given as “neither stimulated nor inhibited”.

For the origin of these results see patent US7332482B2, “Method for treating benign prostatic hyperplasia” (BioXell S.p.A., priority 2003, dated 2008).
